The text below walks through data of PubChem BioAssay (NCI).

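The compound was tested at five concentrations on cells cultured in 96-well plates, with a 48-hour exposure period. Here, GI50 denotes the concentration required for 50% inhibition of growth. TGI marks complete inhibition of growth.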

Holding throughout (assay): NCI anticancer screen, dose series, 48 h
The test system of test [1] is BT-549 breast.
Test [2] deals with SNB-75 CNS.
The subject of test [3] is U251 CNS.
The subject of test [4] is HS 578T breast.
In test [5] the test system is HL-60(TB) leukemia.
Test [6] has as its system SF-539 CNS.
Test [7] deals with NCI-H23 lung.
The subject of test [8] is DLD-1 colon.

`Cc1ccc2[nH]c(O)c(N=Nc3ccc(S(N)(=O)=O)cc3)c2c1`: the GI50 in test [1] is 9.88 µM; in test [2], 8.46 µM; in test [3], 12.8 µM; in test [4], 8.24 µM; in test [5] it was over 25 µM; in test [6] it was 8.73 µM. In addition, the GI50 in test [7] is over 21.5 µM. Besides, the TGI in test [1] is over 18.4 µM; in test [2] it was over 25 µM; in test [3], over 25 µM; in test [4] it was over 25 µM; in test [5], over 25 µM; in test [6], over 25 µM. For the same compound, the TGI in test [7] was over 25 µM.
In the case of `CC(C)(C[C@H]1CN(S(=O)(=O)c2cccc(C(F)(F)F)c2)c2cc(-c3cc(F)cc(OC(F)F)c3)ccc2O1)C(=O)O`, the GI50 in test [1] is 5.9 µM; in test [2], 5.31 µM; in test [3], 4.51 µM; in test [4], 4.47 µM; in test [5], 4.82 µM; in test [6] it was 5.41 µM. For the same compound, the GI50 in test [7] was 9.4 µM. The TGI in test [1] stood at 22.3 µM; in test [2], 23.4 µM; in test [3], 17.1 µM; in test [4], 27.8 µM; in test [5] it was 24.8 µM; in test [6] it was 19.1 µM. This compound also gave a TGI in test [7] of 26.3 µM.
For `Nc1ccn(C2CCC(CO)O2)c(=O)n1` (stereo not given), the TGI in test [1], in test [2], in test [3], in test [4], in test [5] and in test [6] was over 1000 µM in each case. For the same compound, the TGI in test [7] is over 1000 µM. Moreover, the GI50 in test [2], in test [3], in test [6] and in test [7] was over 1000 µM in each case.
As to `CC1(C)[C@@H](OC(N)=O)[C@H]2O[C@H]2[C@]2(C=O)[C@H]3CC[C@]4(C)[C@@H](c5ccc(=O)oc5)[C@@H](Cl)C[C@]4(O)C3=CC[C@@H]12`, the GI50 in test [1] was 0.00501 µM; in test [2], 0.00449 µM; in test [3], 0.00484 µM; in test [4] it was 0.00409 µM; in test [5], 0.00557 µM; in test [6], 0.00439 µM. Also, the GI50 in test [7] was 0.00379 µM. Also, the TGI in test [1] was found to be 0.0103 µM; in test [2], 0.00972 µM; in test [3] it was 0.00952 µM; in test [4], 0.0192 µM; in test [5], 0.0131 µM; in test [6], 0.00833 µM. In addition, in test [7], the TGI turned out to be 0.0111 µM.
With `N#CC1CC2(C1)OCCS2` (stereo not given), the TGI in test [2], in test [3], in test [5], in test [8], in test [6] and in test [7] was over 100 µM throughout.
Take `COc1cc(C(=O)c2cc(C)c3[nH]c4ccc(C)cc4c3c2C)cc(OC)c1OC`: the GI50 in test [1], in test [2], in test [3], in test [4], in test [5] and in test [6] was under 0.01 µM throughout. Also, in test [7], the GI50 was under 0.01 µM. The TGI in test [1] is 2.45 µM; in test [3] it was over 27.1 µM; in test [4], over 100 µM; in test [5], under 0.01 µM; in test [6] it was under 0.01 µM; in test [7] it was over 100 µM.
For the compound `CCSc1nc(SCC)c2cn[nH]c2n1`, the GI50 is 37.5 µM in test [1]; over 100 µM in test [2]; 65.7 µM in test [3]; 10.7 µM in test [4]; 72.4 µM in test [5]; 21.8 µM in test [6]. Also, in test [7], the GI50 is over 100 µM. The TGI in test [1] is over 100 µM; in test [2] it was over 100 µM; in test [3], over 100 µM; in test [4] it was 48.6 µM; in test [5], over 100 µM; in test [6] it was 82.9 µM. In test [7], this compound had a TGI of over 100 µM.
For `COc1cc(NC(C)CCCN)c2nccc(C)c2c1` (stereo not given), the TGI in test [1] was 56.7 µM; in test [2], 37.1 µM; in test [3], 56.8 µM; in test [4], 64.3 µM; in test [5], 21.1 µM; in test [6] it was 35.3 µM. Besides, in test [7], the TGI was over 100 µM.
For `CCCCON(OC(=O)c1ccc2ccc3cccc4ccc1c2c34)C(C)=O`, the GI50 in test [1] is 19.2 µM; in test [2], 19.9 µM; in test [3], 18.1 µM; in test [4], 18.8 µM; in test [5], 19.2 µM; in test [6] it was 18.5 µM. In test [7], the GI50 is 17 µM. Also, the TGI in test [1] was 42.7 µM; in test [2], 41.7 µM; in test [3], 36.5 µM; in test [4], 66.6 µM; in test [5] it was 44.2 µM; in test [6], 35.6 µM. The same compound returned a TGI in test [7] of 35.5 µM.
In the case of `COc1ccc(C(=O)COc2ccc(/C=C3\COc4ccc(OC)cc4C3=O)cc2)cc1`, the GI50 is 16.2 µM in test [1]; 20 µM in test [2]; 13.4 µM in test [3]; 10.7 µM in test [4]; 11 µM in test [5]; 25.2 µM in test [6]. For the same compound, the GI50 in test [7] was 9.67 µM. The TGI worked out at 35.8 µM in test [1]; 69.9 µM in test [2]; 31.2 µM in test [3]; 34.2 µM in test [4]; 62.8 µM in test [5]; 65.6 µM in test [6]. Moreover, in test [7], the TGI came out at 32.8 µM.
For `ClCc1cccc(Cn2cnc3nc(Cl)nc(Cl)c32)c1`, the GI50 in test [1] is 0.487 µM; in test [2], 0.912 µM; in test [3] it was 1.1 µM; in test [4], 0.43 µM; in test [5] it was 1.16 µM; in test [6], 0.189 µM. Moreover, the GI50 in test [7] is 1.29 µM. The TGI turned out to be 1.75 µM in test [1]; 2.2 µM in test [2]; 2.38 µM in test [3]; 2.51 µM in test [4]; 2.38 µM in test [5]; 0.496 µM in test [6]. In test [7], this compound gave a TGI of 2.56 µM.
